Experimental data as given in publication PMC10041525, “New Dual Inhibitors of Bacterial Topoisomerases with Broad-Spectrum Antibacterial Activity and In Vivo Efficacy against Vancomycin-Intermediate Staphylococcus aureus” (Journal of Medicinal Chemistry, 2023).
Converted amounts (≈) assume the structure as drawn. “And” between values parts separate entries of the source, which are not always exact repeats. Identical values can stand only once. Like-named read-outs stand apart in the source and are kept apart here.

Tests used:
[1] = tested on: S. pneumoniae (n = 12); test: MIC broth microdilution at IHMA Europe; assay type: cell-based; settings: for MIC: Streptococcus pneumoniae
[2] = tested on: E. coli ATCC 25922; test: IHMA QC MIC; assay type: cell-based
[3] = tested on: E. faecalis ATCC 29212; set-up: method as in earlier work; settings: QC range for E. faecalis ATCC 29212, ref CLSI; cited from earlier work
[4] = tested on: Haemophilus influenzae (n = 14); test: MIC broth microdilution at IHMA Europe; assay type: cell-based, H. influenzae; settings: for MIC: Haemophilus influenzae
[5] = tested on: P. aeruginosa ATCC 27853; test: IHMA QC MIC; assay type: cell-based
[6] = tested on: H. influenzae ATCC 49766; test: IHMA QC MIC; assay type: cell-based
From the text: (§1) Supplement jm2c01905_si_004.xlsx, sheet "QC" | column: MIC [µg/mL]

[7] = tested on: H. influenzae ATCC 49247; test: IHMA QC MIC; assay type: cell-based
From the text: as §1

[8] = tested on: S. pneumoniae ATCC 49619; test: IHMA QC MIC; assay type: cell-based
From the text: as §1

[9] = tested on: E. faecalis ATCC 29212; test: IHMA QC MIC; assay type: cell-based
From the text: as §1

[10] = tested on: E. faecium (n = 13); test: MIC broth microdilution at IHMA Europe; assay type: cell-based; settings: Enterococcus faecium
[11] = tested on: S. pneumoniae ATCC 49619; set-up: method as in earlier work; settings: QC range for S. pneumoniae ATCC 49619, ref CLSI; cited from earlier work

Structure (SMILES): CN[C@H](CC(C)C)C(=O)N[C@H]1C(=O)N[C@@H](CC(N)=O)C(=O)N[C@H]2C(=O)N[C@H]3C(=O)N[C@H](C(=O)N[C@H](C(=O)O)c4cc(O)cc(O)c4-c4cc3ccc4O)[C@H](O)c3ccc(c(Cl)c3)Oc3cc2cc(c3O[C@@H]2O[C@H](CO)[C@@H](O)[C@H](O)[C@H]2O[C@H]2C[C@](C)(N)[C@H](O)[C@H](C)O2)Oc2ccc(cc2Cl)[C@H]1O [Vancomycin, vancomycin]
- No. of isolates at MIC [1]: 5 and 6
- Cumulative % at MIC ([1]; MIC 1 µg/mL): 100.0%
- No. of isolates at MIC ([1]; MIC 1 µg/mL): 1
- MIC ([1]; S. pneumoniae IHMA N° 1775387): 0.25 µg/mL (≈ 0.173 µM)
- MIC ([1]; S. pneumoniae IHMA N° 1776057): 0.25 µg/mL (≈ 0.173 µM)
- MIC ([1]; S. pneumoniae IHMA N° 1785617): 0.12 µg/mL (≈ 0.0828 µM)
- MIC ([1]; S. pneumoniae IHMA N° 1800765): 0.12 µg/mL (≈ 0.0828 µM)
- MIC ([1]; S. pneumoniae IHMA N° 1811259): 0.12 µg/mL (≈ 0.0828 µM)
- MIC ([1]; S. pneumoniae IHMA N° 1831562): 0.25 µg/mL (≈ 0.173 µM)
- MIC ([1]; S. pneumoniae IHMA N° 1902609): 0.25 µg/mL (≈ 0.173 µM)
- MIC ([1]; S. pneumoniae IHMA N° 1979675): 0.25 µg/mL (≈ 0.173 µM)
- MIC ([1]; S. pneumoniae IHMA N° 1991963): 1 µg/mL (≈ 0.69 µM)
- MIC ([1]; S. pneumoniae IHMA N° 2057487): 0.12 µg/mL (≈ 0.0828 µM)
- MIC ([1]; S. pneumoniae IHMA N° 2073087): 0.25 µg/mL (≈ 0.173 µM)
- MIC ([1]; S. pneumoniae IHMA N° 2117109): 0.12 µg/mL (≈ 0.0828 µM)
- MIC ([2]; Escherichia coli, ATCC25922): > 32 µg/mL
- MIC ([2]; QC strain E. coli ATCC 25922, test date 2021-11-26): >32 µg/mL
- MIC, CLSI Range [3]: 1 to 4 µg/mL
- No. of isolates at MIC [4]: 5 and 9
- MIC ([4]; H. influenzae IHMA N° 1227715): > 32 µg/mL
- MIC ([4]; H. influenzae IHMA N° 1241620): > 32 µg/mL
- MIC ([4]; H. influenzae IHMA N° 1244149): 32 µg/mL (≈ 22.1 µM)
- MIC ([4]; H. influenzae IHMA N° 1249803): > 32 µg/mL
- MIC ([4]; H. influenzae IHMA N° 1254355): 32 µg/mL (≈ 22.1 µM)
- MIC ([4]; H. influenzae IHMA N° 1258580): > 32 µg/mL
- MIC ([4]; H. influenzae IHMA N° 1262734): 32 µg/mL (≈ 22.1 µM)
- MIC ([4]; H. influenzae IHMA N° 1272723): > 32 µg/mL
- MIC ([4]; H. influenzae IHMA N° 1286846): > 32 µg/mL
- MIC ([4]; H. influenzae IHMA N° 1337530): > 32 µg/mL
- MIC ([4]; H. influenzae IHMA N° 1440085): > 32 µg/mL
- MIC ([4]; H. influenzae IHMA N° 1479509): 32 µg/mL (≈ 22.1 µM)
- MIC ([4]; H. influenzae IHMA N° 1952952): > 32 µg/mL
- MIC ([4]; H. influenzae IHMA N° 2047461): 32 µg/mL (≈ 22.1 µM)
- MIC ([5]; Pseudomonas aeruginosa, ATCC27853): > 32 µg/mL
- MIC ([5]; QC strain P. aeruginosa ATCC 27853, test date 2021-11-26): >32 µg/mL
- MIC ([6]; Haemophilus influenzae, ATCC49766): > 32 µg/mL
- MIC ([6]; QC strain H. influenzae ATCC 49766, test date 2021-11-26): >32 µg/mL
- MIC ([7]; Haemophilus influenzae, ATCC49247): > 32 µg/mL
- MIC ([7]; QC strain H. influenzae ATCC 49247, test date 2021-11-26): >32 µg/mL
- MIC ([8]; QC strain S. pneumoniae ATCC 49619, test date 2021-11-26): 0.12 µg/mL (≈ 0.0828 µM)
- MIC ([8]; Streptococcus pneumoniae, ATCC49619): 0.12 µg/mL (≈ 0.0828 µM)
- MIC ([9]; Enterococcus faecalis, ATCC29212): 2 µg/mL (≈ 1.38 µM)
- MIC ([9]; QC strain E. faecalis ATCC 29212, test date 2021-11-26): 2 µg/mL (≈ 1.38 µM)
- MIC ([10]; E. faecium IHMA N° 1764866): 16 µg/mL (≈ 11 µM)
- MIC ([10]; E. faecium IHMA N° 1765436): 16 µg/mL (≈ 11 µM)
- MIC ([10]; E. faecium IHMA N° 1765746): > 32 µg/mL
- MIC ([10]; E. faecium IHMA N° 1893573): 32 µg/mL (≈ 22.1 µM)
- MIC ([10]; E. faecium IHMA N° 1893846): > 32 µg/mL
- MIC ([10]; E. faecium IHMA N° 1893942): 32 µg/mL (≈ 22.1 µM)
- MIC ([10]; E. faecium IHMA N° 1894055): > 32 µg/mL
- MIC ([10]; E. faecium IHMA N° 1897027): > 32 µg/mL
- MIC ([10]; E. faecium IHMA N° 1897101): > 32 µg/mL
- MIC ([10]; E. faecium IHMA N° 1904592): > 32 µg/mL
- MIC ([10]; E. faecium IHMA N° 2075051): 16 µg/mL (≈ 11 µM)
- MIC ([10]; E. faecium IHMA N° 2077718): > 32 µg/mL
- MIC ([10]; E. faecium IHMA N° 2083787): > 32 µg/mL
- MIC, CLSI Range [11]: 0,12 - 0,5 µg/mL
